This passage reports IC50 results from ChEMBL document CHEMBL1201862, “PubChem BioAssay data set” (2004).

The IC50 is the concentration at which inhibition is half-maximal.

The assay concerns the target Envelope glycoprotein gp160 (Human immunodeficiency virus 1, UniProt Q6QLK5). The assay can be described thus: inhibitors of HIV fusion peptide binding, primary screen, biochemical, uHTS, fluorescence dequenching (AID 1986).

The source made the active and inactive calls. Rule as the data show it: actives have a measured IC50 and inactives only a lower limit.

Chain of Envelope glycoprotein gp160 (Q6QLK5 whole entry, the tested form may be a part): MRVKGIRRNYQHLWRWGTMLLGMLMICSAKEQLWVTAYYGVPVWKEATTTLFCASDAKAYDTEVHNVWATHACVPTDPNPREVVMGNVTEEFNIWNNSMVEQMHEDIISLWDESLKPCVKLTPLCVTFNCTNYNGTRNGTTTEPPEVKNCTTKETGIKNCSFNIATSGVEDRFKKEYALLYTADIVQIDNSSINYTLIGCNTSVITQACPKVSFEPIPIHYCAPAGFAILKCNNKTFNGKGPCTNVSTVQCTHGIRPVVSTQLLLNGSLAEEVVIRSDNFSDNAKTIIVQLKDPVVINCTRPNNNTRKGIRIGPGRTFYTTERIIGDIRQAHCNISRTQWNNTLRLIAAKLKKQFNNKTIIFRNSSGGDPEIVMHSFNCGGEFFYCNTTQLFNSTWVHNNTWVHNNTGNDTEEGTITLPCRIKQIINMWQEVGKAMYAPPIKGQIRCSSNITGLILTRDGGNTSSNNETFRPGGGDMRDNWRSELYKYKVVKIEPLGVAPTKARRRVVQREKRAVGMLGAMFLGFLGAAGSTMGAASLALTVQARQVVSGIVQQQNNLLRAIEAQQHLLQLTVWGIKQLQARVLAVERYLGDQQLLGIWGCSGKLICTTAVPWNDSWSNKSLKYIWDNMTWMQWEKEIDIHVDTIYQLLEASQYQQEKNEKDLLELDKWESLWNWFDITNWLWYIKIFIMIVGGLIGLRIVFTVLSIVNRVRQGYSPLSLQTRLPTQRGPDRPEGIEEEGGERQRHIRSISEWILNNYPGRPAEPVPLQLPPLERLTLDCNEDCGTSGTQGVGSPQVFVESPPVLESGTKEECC

`CCOC(=O)c1sc2nc3c(SCCC(=O)O)cc(C(=O)c4cc(OC)ccc4O)cn3c(=O)c2c1C`: the IC50 is 16 µM (active).
